According to patent US5659049A, “Antioxidant, antiphospholipase derivatives of ricinoleic acid” (Virginia Commonwealth University, priority 1995, dated 1997):
Structures can show the parent of a compound that is named as a salt.

Legend:
[1] = Oxidation of arachidonic acid (decreased turbidity and hydroperoxide formation)
human synovial PLA2 = target: T1, human synovial PLA2 (Homo sapiens, UniProt P14555); assay: Inhibition of human synovial PLA2 activity in vitro; type: biochemical; conditions: for IC50: each compound prepared as a sodium salt, FIG. 9, approximately
T1 construct: from tissue; host or cells: human synovial (fluid)
T1 sequence (P14555 21-144): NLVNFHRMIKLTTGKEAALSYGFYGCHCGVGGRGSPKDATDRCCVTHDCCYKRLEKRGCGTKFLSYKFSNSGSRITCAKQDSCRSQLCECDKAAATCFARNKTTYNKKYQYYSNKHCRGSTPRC
From the text: FIG. 9 is a graph illustrating the ability of the compounds of the invention to inhibit PLA2 activity in vitro.

[2] = system: human polymorphonuclear leukocytes (PMNs); assay: Inhibition of arachidonic acid release from prelabelled human PMNs; conditions: Leukocyte, read-out: % Inhibition of arachidonic acid release
[3] = target: T2, human synovial fluid PLA2 (SF-PLA2) (Homo sapiens, UniProt P14555); assay: Human SF-PLA2 induced mouse paw edema, oral administration; type: in vivo; conditions: for % Increase Weight: control 61%
T2 construct: intra-articular injection of human synovial fluid PLA2 (SF-PLA2) into the mouse paw; from tissue; host or cells: human synovial fluid
T2 sequence (P14555 21-144): T1 sequence (P14555 21-144)
Method: The mouse paw edema is inhibited in dose related fashion by increasing concentrations of RISE-1 given orally 1.0 hours before induction of the edema by SF-PLA2.

platelet PLA2 = target: T3, platelet PLA2 (Homo sapiens, UniProt P14555); assay: In vitro inhibition of PLA2 derived from platelets (FIG. 8); type: biochemical
T3 construct: from tissue; host or cells: platelets
T3 sequence (P14555 21-144): T1 sequence (P14555 21-144)

[4] = system: rat adjuvant induced arthritis; assay: Rat adjuvant induced arthritis; conditions: in vivo
[5] = Auto-oxidation of phosphatidylethanolamine; type: biochemical; conditions: for % Oxidized PE / % Unoxidized PE: 24 hrs; for % Oxidized PE: PE alone 39.3%; for % Unoxidized PE: PE alone 51.1%
human plasma PLA2 = target: T4, human plasma PLA2 (Homo sapiens, UniProt P14555); assay: In vitro inhibition of PLA2 derived from plasma (FIG. 8); type: biochemical
T4 construct: from tissue; host or cells: human plasma
T4 sequence (P14555 21-144): T1 sequence (P14555 21-144)

sperm PLA2 = assay: In vitro inhibition of PLA2 derived from sperm (FIG. 8); type: biochemical, human
PLA2 = assay: Anti-PLA2 activity (comparative Table 6); type: biochemical; conditions: nd = not detectable at ≤ 500 uM; read-out: IC-50 Anti-PLA2 Activity
[6] = Anti-oxidant activity (comparative Table 6); conditions: read-out: IC-50 Anti-Oxidant Activity; nd = not detectable at ≤ 500 uM
[7] = RISE-1 10 mg/kg orally 1.0 hours before SF-PLA2
[8] = RISE-1 30 mg/kg orally 1.0 hours before SF-PLA2
[9] = RISE-1 100 mg/kg orally 1.0 hours before SF-PLA2

Cc1cc(C(C)(C)C)c(O)c(C(C)(C)C)c1 [BHT, betahydroxytoluene, reference compound]
Turbidity (430 nm) ([1]; 100 uM, time 0 hrs, control 1.38): 1.31
Hydroperoxide ([1]; 100 uM, time 0 hrs, control 100): 119 nmols
Hydroperoxide ([1]; 100 uM, time 24 hrs, control 378): 112 nmols
Turbidity (430 nm) ([1]; 100 uM, time 24 hrs, control .387): 1.283

CCCCCCC(C/C=C\CCCCCCCC(=O)O)OC(=O)CCCCCCCCC(=O)O (centres unmarked) [RISE-1, Ricinoleic Acid Sebacyl Ester]
Inhibition of PLA2 derived from human synovial fluid (human synovial PLA2; FIG. 8): dose related, selective in vitro inhibition
IC50 (human synovial PLA2): 5 to 10 µM
inhibition at 25 µM [2]: 0%
inhibition at 50 µM [2]: 19%
inhibition at 75 µM [2]: 38%
inhibition at 100 µM [2]: 72%
Turbidity (430 nm) ([1]; 25 uM, time 0 hrs, control 1.38): 1.33
Hydroperoxide ([1]; 25 uM, time 0 hrs, control 100): 109 nmols
Hydroperoxide ([1]; 25 uM, time 24 hrs, control 378): 437 nmols
Turbidity (430 nm) ([1]; 25 uM, time 24 hrs, control .387): .524
Turbidity (430 nm) ([1]; 50 uM, time 0 hrs, control 1.38): 1.47
Hydroperoxide ([1]; 50 uM, time 0 hrs, control 100): 109 nmols
Hydroperoxide ([1]; 50 uM, time 24 hrs, control 378): 428 nmols
Turbidity (430 nm) ([1]; 50 uM, time 24 hrs, control .387): .348
% Protection [3, 7]: 23%
% Increase Weight [3, 7]: 47%
% Protection [3, 8]: 38%
% Increase Weight [3, 8]: 38%
% Protection [3, 9]: 49%
% Increase Weight [3, 9]: 31%
Inhibition of PLA2 derived from platelets (platelet PLA2): dose related, selective in vitro inhibition
Inhibition of rat adjuvant induced arthritis [4]: does not inhibit
% Oxidized PE ([5]; 25 uM): 42.0%
% Unoxidized PE ([5]; 25 uM): 50.6%
% Oxidized PE ([5]; 100 uM): 42.4%
% Unoxidized PE ([5]; 100 uM): 49.6%
Inhibition of PLA2 derived from plasma (human plasma PLA2): dose related, selective in vitro inhibition
Inhibition of PLA2 derived from sperm (sperm PLA2): dose related, selective in vitro inhibition

CCCCCCCC/C=C\CCCCCCCC(=O)OC(C/C=C\CCCCCCCC(=O)O)CCCCCC (centres unmarked) [PX-3, Ricinoleic Acid Oleic Acid Ester]
IC50 (PLA2): 7.2 µM
IC50 (human synovial PLA2): 5 to 10 µM
IC50 [6]: > 500 µM
Percent Protection ([5]; 25 μM): 16%
Percent Protection ([5]; 50 μM): 16%
Percent Protection ([5]; 100 μM): 13%
Percent Protection ([5]; 250 μM): 22%
Percent Protection ([5]; 500 μM): 27%

CCCCCCC(C/C=C\CCCCCCCC(=O)O)OC(=O)/C=C/C(=O)O (centres unmarked) [PX-2]
IC50 (PLA2): > 500 µM
IC50 [6]: > 500 µM

CCCCCCC(C/C=C\CCCCCCCC(=O)O)OC(=O)/C=C/C(=O)OC(C/C=C\CCCCCCCC(=O)O)CCCCCC (centres unmarked) [PX-7, Diricinoleic Acid Fumarate Diester]
IC50 (PLA2): 7 µM
IC50 [6]: 130 µM

CCCCCCCC/C=C\CCCCCCCCOC(=O)CCCCCCC/C=C\CC(CCCCCC)OC(=O)/C=C/C(=O)O (centres unmarked) [PX-5, Oleyl Alcohol-Ricinoleate-Fumaric Acid Diester]
IC50 (PLA2): 5 µM
IC50 (human synovial PLA2): 5 to 10 µM
IC50 [6]: 300 µM
Percent Protection ([5]; 25 μM): 28%
Percent Protection ([5]; 50 μM): 24%
Percent Protection ([5]; 100 μM): 31%
Percent Protection ([5]; 250 μM): 47%
Percent Protection ([5]; 500 μM): 62%

CCCCCCCC/C=C\CCCCCCCCOC(=O)CCCCCCC/C=C\CC(CCCCCC)OC(=O)/C=C\C(=O)O (centres unmarked) [PX-8]
IC50 (PLA2): 3.5 µM
IC50 [6]: 140 µM

CCCCCCCC/C=C\CCCCCCCC(=O)OCC(COC(=O)CCCCCCC/C=C\CCCCCCCC)(COC(=O)CCCCCCC/C=C\CCCCCCCC)NCCS(=O)(=O)O [PX-13, TES Triolears]
ED50 ([3]; mouse, po, administered single dose orally, read-out: IC50 vs PLA2 induced mouse paw edema): ~15 mg/kg

CCCCC/C=C\C/C=C\CCCCCCCC(=O)OCC(N)(COC(=O)CCCCCCC/C=C\C/C=C\CCCCC)COC(=O)CCCCCCC/C=C\C/C=C\CCCCC [PX-14]
IC50 (PLA2): 4.4 µM
IC50 [6]: 70 µM

CCCCC/C=C\C/C=C\CCCCCCCC(=O)OC(C/C=C\CCCCCCCC(=O)O)CCCCCC (centres unmarked) [PX-4, Ricinoleic Acid Linoleic Acid Ester]
IC50 (PLA2): 10 µM
IC50 (human synovial PLA2): 5 to 10 µM
IC50 [6]: 210 µM
Percent Protection ([5]; 25 μM): 13%
Percent Protection ([5]; 50 μM): 22%
Percent Protection ([5]; 100 μM): 38%
Percent Protection ([5]; 250 μM): 53%
Percent Protection ([5]; 500 μM): 73%

CCCCC/C=C\C/C=C\CCCCCCCC(=O)OCC1(COC(=O)CCCCCCC/C=C\C/C=C\CCCCC)COC(=O)CN1C(=O)CCCCCCC/C=C\C/C=C\CCCCC [PX-15]
IC50 [6]: > 500 µM

CCCCCCC(O)C/C=C\CCCCCCCC(=O)OC(C/C=C\CCCCCCCC(=O)O)CCCCCC (centres unmarked) [PX-6]
IC50 (PLA2): 4.5 µM
IC50 [6]: 300 µM
